Data on one compound can be found in patent publication EP0845265A1, “MUCOSAL P[…] PHYSIOLOGICALLY ACTIVE PEPTIDE” (Asahi Kasei Kogyo Kabushiki Kaisha, priority 1995, dated 1997).

This data set in a line: In vivo absorption of elcatonin by rats (nasal administration, serum level by RIA). On the set-up: species or system Wistar rats. As to conditions: diltiazem hydrochloride per se, without absorption promotor. The method, then:
In vivo absorption of elcatonin by rats :
Wistar rats, male (Japan SLC, body weight 200 - 250 g), fasting overnight, 4 rats in a group, were anesthetized by pentobarbital (Nembutal inj. Dainippon Pharm. Co., Japan).
Polyethylene tube was inserted into the trachea by incised in the corvex. Tube was inserted into postnasal space after esophageal incision. Administration was conducted by pouring drug solution 25 µl prepared in use using micropipette into the right naris. Blood sample 200 µl was collected from femoral vein time dependently before and after administration of drug. Blood sample was centrifuged (15,000 rpm/10 min./5°C) and stored at -30 °C before analysis.
Elcatonin 20 units/ml (in physiological saline) 0.25 ml was subcutaneously administered for comparison with absorption rate (comparison 1).
Blood level was assayed by RIA.
Absorption rate is calculated by using area under the curve (AUC) in the comparison 1 from the following equation. Absorption rate (%) =(AUC (I.N.))/(AUC (S.C.))×(dose (S.C.))/(dose (I.N.))×100 [formula] wherein I. N. : nasal administraion and S.C. : subcutaneous administration. As clearly shown in Fig. 2, absorption of elcatonin was enhanced in above 2 fold through nasal mucosa by administering with absorption promotor sodium glycocholate and calciuim channel blocker as compared with sodium glycocholic acid per se.

Where a name gives a salt, the structure may show the parent alone.

Turning to `COc1ccc([C@@H]2Sc3ccccc3N(CCN(C)C)C(=O)[C@@H]2OC(C)=O)cc1` [diltiazem hydrochloride, Diltiazem hydrochloride], the absorption promoting action result is recorded as “no absorption promoting action”.
